Laboratory results reported in patent US8258128B2, “Organic compounds” (Novartis AG, priority 2006, dated 2012).
Values joined by “and” are separate entries in the source; they are usually repeats but may differ in a detail not shown here. Identical values can stand only once.

Tested on: urate crystal induced synovitis of the stifle joint in dogs
Assay: Urate crystal induced synovitis of the stifle joint in dogs, force plate analysis
Assay type: in vivo, dog
Settings: for Z peak force of the injected rear leg, percent of pre-values, Mean: six dogs
Source text: Objective: The objective of this study is to evaluate the analgesic and anti-inflammatory effect of a single dose of COMPOUND A using a model of urate crystal induced synovitis of the stifle joint in dogs via kinetic gait analysis (force plate).
Animals: A total of six Beagle dogs (4 males and 2 females) aged between 2 and 9 years and weighing 13 to 15.8 kg are recruited for this study. The dogs are housed in groups of two in light and temperature controlled pens. Each dogs is offered 150-300 g dry pellet food once a day in the morning. Water is available ad libitum through nipple drinkers.
Acute synovitis model: In this study, acute but reversible arthritis is induced by intra-articular (left or right stifle joint) injection of a saline (NaCl 0.9%) suspension containing 15 mg of monosodium urate crystals.
Intra-articular injections: Dogs are sedated with medetomidine (40 microg/kg, i.v.). The left of right stifle joint is clipped and prepared aseptically for intrasynovial injection. A 20-gauge needle is inserted lateral to the patellar ligament and introduced into the articular space. To ensure correct placement of the needle, a small amount of synovial fluid is aspirated with an empty 2 ml syringe. Then, approximately 2 ml of the monosodium urate suspension is injected in the joint cavity through the previously placed needle. Sedation is then antagonized with injection of atipamezol (40 μg/kg, i.v.). Dogs are then brought back to their pens for approximately 3 hours. Usually, after this period, the lameness induced by the injection of the monosodium urate crystals suspension is developed to a point where the dogs become non-weight-bearing on the injected leg during standing, walking and trotting. If at this time the dog's lameness grade is not sufficient, the dogs are excluded from this part of the trial.
Treatments: According to the protocol, both treatments are administered via the oral route approximately 3 hours after the injection of the monosodium urate crystals suspension, and only to the dogs that developed a high-grade lameness. For part 1, half of the dogs are allocated to the COMPOUND A-treated group and the other dogs are allocated to the control group. For part 2, treatments are crossed, so that dogs that are treated with COMPOUND A in part 1 are administered the placebo treatment, and vice versa. The treatments are administered at the doses of 0 mg/kg (placebo) and 2 mg/kg. COMPOUND A is mixed to a placebo formulation (micro-emulsion vehicle without active ingredient) just before administration. The appropriate volumes based on the dogs' bodyweights are given per os with syringes. Thereafter, all syringes are rinsed with NaCl 0.9% and applied to the dogs. The control dogs receive 10 ml of the identical placebo formulation.
Force plate analysis: A biomechanical platform (OR6-6-1000, Advanced Mechanical Technologies Inc., Watertown, Mass.) that measures 3 dimensional forces and impulses is used for our study. The dogs are trotted over the force plate 1, 2, 3, 4 and 6 hours after administration of the treatments to obtain data of vertical forces and impulses of the affected limb. Baseline values included force plate data obtained the day before the induction of lameness and are set as 100% of the dog's capacity. In order to minimize the effect of inter-individual variation we choose to calculate and express the measured data as percentage of the baseline values. By use of a software (Acquire Software 7.20e, Robert Wells, Mich. State University, East Lansing, Mich.) installed with the force plate and a computer, the vertical peak force (ZpkF) is measured. All data are normalized to the bodyweight of the dogs. Data on other ground reaction forces (e.g. vertical impulse, braking and propulsion peak forces) are also recorded and stored but not analyzed. Data from 5 to 6 valid trials of the injected limb at a given measurement time point are averaged and expressed as percentage of the pre-values. […]

COC1=Nc2cc(Cl)ccc2/C(=C/C(=O)O)c2sc(Cl)cc21 [COMPOUND A, [2,7-Dichloro-10-methoxy-3-thia-9-aza-benzo[f]azulen-(4Z)-ylidene]-acetic acid]
Z peak force of the injected rear leg, percent of pre-values, individual dogs (2 mg/kg p.o., T + 1 H): 0.0% | Z peak force of the injected rear leg, percent of pre-values, Mean (2 mg/kg p.o., T + 1 H): 0.0% | Z peak force of the injected rear leg, percent of pre-values, individual dogs (2 mg/kg p.o., T + 2 H): 0.0% (5×) and 65.8% | Z peak force of the injected rear leg, percent of pre-values, Mean (2 mg/kg p.o., T + 2 H): 11.0% | Z peak force of the injected rear leg, percent of pre-values, individual dogs (2 mg/kg p.o., T + 3 H): 86.7% and 93.8% and 71.9% and 79.1% and 0.0% (2×) | Z peak force of the injected rear leg, percent of pre-values, Mean (2 mg/kg p.o., T + 3 H): 55.2% | Z peak force of the injected rear leg, percent of pre-values, individual dogs (2 mg/kg p.o., T + 4 H): 80.9% and 87.1% and 103.1% and 82.5% and 58.2% and 0.0% | Z peak force of the injected rear leg, percent of pre-values, Mean (2 mg/kg p.o., T + 4 H): 68.6% | Z peak force of the injected rear leg, percent of pre-values, individual dogs (2 mg/kg p.o., T + 6 H): 78.5% and 106.1% and 87.7% and 85.2% and 83.7% | Z peak force of the injected rear leg, percent of pre-values, Mean (2 mg/kg p.o., T + 6 H): 91.2% | Z peak force of the injected rear leg, percent of pre-values, individual dogs (Prevs (day before induction of lameness, set as 100%), 2 mg/kg p.o. group, dogs 519, 525, 652, 664, 2201, 2207): 100.0% | Z peak force of the injected rear leg, percent of pre-values, Mean (Prevs (set as 100%), 2 mg/kg p.o. group): 100.0%
